Measurements reported in US20260285855A1, “HETEROARYL DERIVATIVES AS DDRS INHIBITORS” (CHIESI FARMACEUTICI S.P.A., priority 2023, published 2026).

What was measured:
[1] = target: T1, DDR1 (Homo sapiens, UniProt Q08345); assay: LanthaScreen Europium Kinase Binding assay, DDR1; settings: 5 nM DDR1, 20 nM Kinase Tracer 178, 1 h at rt; Ki from IC50 by Cheng-Prusoff; read-out: Ki DDR1
T1 construct: purchased Carna Biosciences
Experimental: (§1) DDR1 and DDR2 binding assays were performed using Life Technologies LanthaScreen™ Europium Kinase Binding assay. […] IC50 values were determined in GraphPad Prism 7.0 software, using 4 parameter model: log (inhibitor) vs. response. IC50 values were converted in Ki using the Cheng-Prusoff equation (Ki-IC50/(1+ [Tracer]/Kd).

[2] = target: T2, DDR2 (Homo sapiens, UniProt Q16832); assay: LanthaScreen Europium Kinase Binding assay, DDR2; settings: 5 nM DDR2, 10 nM Kinase Tracer 178, 1 h at rt; Ki from IC50 by Cheng-Prusoff; read-out: Ki DDR2
T2 construct: purchased Life Technologies
T2 sequence (Q16832 22-855): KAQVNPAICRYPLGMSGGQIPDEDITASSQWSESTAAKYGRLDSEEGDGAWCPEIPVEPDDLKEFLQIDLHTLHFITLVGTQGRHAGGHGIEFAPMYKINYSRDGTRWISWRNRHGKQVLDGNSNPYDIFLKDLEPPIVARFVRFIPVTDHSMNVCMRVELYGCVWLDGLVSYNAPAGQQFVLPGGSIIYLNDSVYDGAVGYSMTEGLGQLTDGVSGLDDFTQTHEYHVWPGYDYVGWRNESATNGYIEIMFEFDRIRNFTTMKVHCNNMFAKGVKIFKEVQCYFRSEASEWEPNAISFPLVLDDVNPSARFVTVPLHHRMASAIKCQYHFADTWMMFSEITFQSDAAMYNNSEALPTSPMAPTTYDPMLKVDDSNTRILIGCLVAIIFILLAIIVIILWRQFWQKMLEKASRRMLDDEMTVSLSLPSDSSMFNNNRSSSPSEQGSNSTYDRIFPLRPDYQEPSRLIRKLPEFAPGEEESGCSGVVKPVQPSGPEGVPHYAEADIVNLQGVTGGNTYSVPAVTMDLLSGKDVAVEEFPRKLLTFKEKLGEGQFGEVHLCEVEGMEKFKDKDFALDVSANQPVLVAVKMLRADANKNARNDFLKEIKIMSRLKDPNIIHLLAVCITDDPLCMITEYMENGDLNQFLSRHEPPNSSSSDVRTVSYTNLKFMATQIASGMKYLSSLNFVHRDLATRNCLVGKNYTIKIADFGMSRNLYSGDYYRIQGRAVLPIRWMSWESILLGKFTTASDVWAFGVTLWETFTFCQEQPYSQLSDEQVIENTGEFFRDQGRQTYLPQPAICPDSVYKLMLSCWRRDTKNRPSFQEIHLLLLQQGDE
Experimental: as §1

T1 sequence (Q08345 19-913): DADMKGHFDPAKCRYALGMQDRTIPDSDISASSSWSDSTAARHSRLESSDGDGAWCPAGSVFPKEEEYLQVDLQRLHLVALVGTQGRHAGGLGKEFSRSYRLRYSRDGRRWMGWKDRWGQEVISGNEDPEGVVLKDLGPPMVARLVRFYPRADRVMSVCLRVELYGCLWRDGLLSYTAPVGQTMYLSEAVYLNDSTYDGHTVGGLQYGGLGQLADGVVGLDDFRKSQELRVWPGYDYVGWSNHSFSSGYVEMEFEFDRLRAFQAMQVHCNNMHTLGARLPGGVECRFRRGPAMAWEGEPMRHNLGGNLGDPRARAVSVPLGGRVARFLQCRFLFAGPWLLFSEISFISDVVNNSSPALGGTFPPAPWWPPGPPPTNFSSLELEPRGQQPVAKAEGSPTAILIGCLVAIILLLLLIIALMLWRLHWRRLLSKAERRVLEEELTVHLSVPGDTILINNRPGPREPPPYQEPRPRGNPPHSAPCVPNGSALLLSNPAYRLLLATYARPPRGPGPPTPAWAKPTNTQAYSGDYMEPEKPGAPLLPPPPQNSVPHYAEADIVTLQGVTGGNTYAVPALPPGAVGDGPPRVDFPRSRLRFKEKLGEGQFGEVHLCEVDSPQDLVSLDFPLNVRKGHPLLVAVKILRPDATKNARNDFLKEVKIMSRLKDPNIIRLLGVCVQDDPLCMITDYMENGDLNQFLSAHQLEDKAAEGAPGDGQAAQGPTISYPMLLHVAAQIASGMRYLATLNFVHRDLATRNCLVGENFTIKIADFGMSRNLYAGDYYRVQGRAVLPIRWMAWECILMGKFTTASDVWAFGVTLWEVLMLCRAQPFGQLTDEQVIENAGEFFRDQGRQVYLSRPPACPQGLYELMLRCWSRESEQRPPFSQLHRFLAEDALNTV

| Structure (SMILES) | Ki [1] | Ki [2] |
| --- | --- | --- |
| CN(C(=O)Nc1cncc(OC(F)(F)F)c1)C1CC2(C1)CN(C(=O)c1cnn3ccncc13)C2 [Example 176, 1-methyl-1-(2-(pyrazolo[1,5-a]pyrazine-3-carbonyl)-2-azaspiro[3.3]heptan-6-yl)-3-(5-(trifluoromethoxy)pyridin-3-yl)urea] | 5 to 25 nM | 25 to 100 nM |
| CN(C(=O)Nc1cc(OC(F)F)ccn1)C1CC2(C1)CN(C(=O)c1cnn3ccn(C)c13)C2 [Example 177, 3-(4-(difluoromethoxy)pyridin-2-yl)-1-methyl-1-(2-(1-methyl-1H-imidazo[1,2-b]pyrazole-7-carbonyl)-2-azaspiro[3.3]heptan-6-yl)urea] | < 5 nM | 25 to 100 nM |
| CN(C(=O)Nc1cc(C(F)(F)F)ncn1)C1CC2(C1)CN(C(=O)c1cnn3ccsc13)C2 [Example 178, 1-methyl-1-(2-(pyrazolo[5,1-b]thiazole-7-carbonyl)-2-azaspiro[3.3]heptan-6-yl)-3-(6-(trifluoromethyl)pyrimidin-4-yl)urea] | < 5 nM | 25 to 100 nM |
| CN(C(=O)Nc1cncc(OC(F)(F)F)c1)C1CC2(C1)CN(C(=O)c1cnn3ccsc13)C2 [Example 179, 1-methyl-1-(2-(pyrazolo[5,1-b]thiazole-7-carbonyl)-2-azaspiro[3.3]heptan-6-yl)-3-(5-(trifluoromethoxy)pyridin-3-yl)urea] | < 5 nM | 5 to 25 nM |
| Cc1ncc(NC(=O)N(C)C2CC3(C2)CN(C(=O)c2cnn4ccn(C)c24)C3)cc1C(F)(F)F [Example 180, 1-methyl-1-(2-(1-methyl-1H-imidazo[1,2-b]pyrazole-7-carbonyl)-2-azaspiro[3.3]heptan-6-yl)-3-(6-methyl-5-(trifluoromethyl)pyridin-3-yl)urea] | < 5 nM | 5 to 25 nM |
| Cc1ncc(NC(=O)NC2CC3(C2)CN(C(=O)c2cnn4ccn(C)c24)C3)cc1C(F)(F)F [Example 181, 1-(2-(1-methyl-1H-imidazo[1,2-b]pyrazole-7-carbonyl)-2-azaspiro[3.3]heptan-6-yl)-3-(6-methyl-5-(trifluoromethyl)pyridin-3-yl)urea] | < 5 nM | 5 to 25 nM |
| Cn1cc(-c2ccc3c(C(=O)N4CC5(CC(NC(=O)Nc6cccc(C(F)(F)F)c6)C5)C4)cnn3c2)cn1 [Example 182, 1-(2-(6-(1-methyl-1H-pyrazol-4-yl)pyrazolo[1,5-a]pyridine-3-carbonyl)-2-azaspiro[3.3]heptan-6-yl)-3-(3-(trifluoromethyl)phenyl)urea] | < 5 nM | < 5 nM |

Other lines, results leading:

| Ki [1] | Ki [2] | Structure (SMILES) |
| --- | --- | --- |
| < 5 nM | 5 to 25 nM | O=C(Nc1cccc(C(F)(F)F)c1)NC1CC2(C1)CN(C(=O)c1cnn3ccc(N4CCS(=O)(=O)CC4)cc13)C2 [Example 183, 1-(2-(5-(1,1-dioxidothiomorpholino)pyrazolo[1,5-a]pyridine-3-carbonyl)-2-azaspiro[3.3]heptan-6-yl)-3-(3-(trifluoromethyl)phenyl)urea] |
| < 5 nM | < 5 nM | Nc1ccn2ncc(C(=O)N3CC4(CC(NC(=O)Nc5cccc(C(F)(F)F)c5)C4)C3)c2c1 [Example 184, 1-(2-(5-aminopyrazolo[1,5-a]pyridine-3-carbonyl)-2-azaspiro[3.3]heptan-6-yl)-3-(3-(trifluoromethyl)phenyl)urea] |
| < 5 nM | < 5 nM | O=C(Nc1cccc(C(F)(F)F)c1)NC1CC2(C1)CN(C(=O)c1cnn3ccc(N4CCC(O)C4)cc13)C2 (stereo not shown) [Example 185, 1-(2-(5-(3-hydroxypyrrolidin-1-yl)pyrazolo[1,5-a]pyridine-3-carbonyl)-2-azaspiro[3.3]heptan-6-yl)-3-(3-(trifluoromethyl)phenyl)urea] |
| < 5 nM | 5 to 25 nM | CN1CCN(c2ccn3ncc(C(=O)N4CC5(CC(NC(=O)Nc6cccc(C(F)(F)F)c6)C5)C4)c3c2)C(=O)C1 [Example 186, 1-(2-(5-(4-methyl-2-oxopiperazin-1-yl)pyrazolo[1,5-a]pyridine-3-carbonyl)-2-azaspiro[3.3]heptan-6-yl)-3-(3-(trifluoromethyl)phenyl)urea] |
